In ChEMBL document CHEMBL5604065, “ASAP - DENV-3 NS2B-NS3 protease fluorescence dose response” (2024):

Target: T1, NS3 protease (dengue virus type 3, UniProt A0A0B5JFF1)
T1 sequence (A0A0B5JFF1 whole entry): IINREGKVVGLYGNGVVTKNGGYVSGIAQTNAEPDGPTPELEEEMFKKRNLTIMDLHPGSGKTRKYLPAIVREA
Assay: Functional biochemical assay to identify treatments for viral infectious disease that targets Dengue virus type 3 NS2B-NS3 protease. Utilizing a direct enzyme activity measurement method, reading the fluorescence intensity is used to characterize the relative potency of inhibitors as IC50.
Set-up: species or system Philippines/H87/1956

| SMILES | IC50 [µM] |
| --- | --- |
| Cc1c(C(=O)Nc2cc(CCCN)ccn2)cc(C2CC2)n1C | 34.5 |
| CNC(=O)[C@H](Nc1cccc(CN)c1)c1cc(Cl)cc(NC(=O)OCc2ccccc2)c1 | > 99.5 |
| O=C(Nc1ccc2c(c1)CNC2)c1cc(Cl)cc2c1CCC2 | > 99.5 |
| O=C(Nc1ccc2c(c1)CNC2)c1ccc2[nH]ccc2c1 | > 99.5 |
| CNC(=O)[C@H](Nc1cc(CN)cc(C(=O)O)c1)c1cc(Cl)cc(C2CC2)c1 | > 99.5 |
| O=C(Nc1ccc2c(c1)CNC2)c1cc(Br)cc2ccccc12 | > 99.5 |
| COCCNC(=O)[C@H](Nc1ccc2c(c1)CNC2)c1cc(Cl)cc(C2CC2)c1 | 63.4 |
